# In patent US12077503B2, “Substituted cyclic amides and their use as herbicides” (FMC CORPORATION, priority 2015, dated 2024):
# Experiments:
# [1] = test system: johnsongrass (Sorghum halepense); assay: Test C preemergence; type: in vivo; settings: for Plant response rating, Johnsongrass: scale 0 to 100, 0 no effect, 100 complete control
# Procedure, shortened: (§1)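 Visual rating, 0–100 scale (0 = no effect, 100 = complete control) versus controls, 13–15 d after treatment. Compounds in non-phytotoxic solvent plus surfactant; applied preemergence to seeds in loam/sand soil or postemergence to 1- to 4-leaf plants (2–18 cm) in peat/vermiculite medium; greenhouse-held.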
# [2] = test system: oilseed rape (Brassica napus); assay: Test C preemergence; type: in vivo; settings: for Plant response rating, Oilseed Rape: scale 0 to 100, 0 no effect, 100 complete control
# Procedure, shortened: as §1
# soybean (Glycine max) = assay: Test C preemergence; type: in vivo; settings: for Plant response rating, Soybean: scale 0 to 100, 0 no effect, 100 complete control
# Procedure, shortened: as §1
# [3] = test system: velvetleaf (Abutilon theophrasti); assay: Test C preemergence; type: in vivo; settings: for Plant response rating, Velvetleaf: scale 0 to 100, 0 no effect, 100 complete control
# Procedure, shortened: as §1
# [4] = test system: ragweed (common ragweed, Ambrosia elatior); assay: Test C preemergence; type: in vivo; settings: for Plant response rating, Ragweed: scale 0 to 100, 0 no effect, 100 complete control
# Procedure, shortened: as §1
# [5] = test system: wheat (winter wheat, Triticum aestivum); assay: Test C preemergence; type: in vivo; settings: for Plant response rating, Wheat: scale 0 to 100, 0 no effect, 100 complete control
# Procedure, shortened: as §1
# [6] = test system: foxtail, giant (giant foxtail, Setaria faberii); assay: Test C preemergence; type: in vivo; settings: for Plant response rating, Foxtail, Giant: scale 0 to 100, 0 no effect, 100 complete control
# Procedure, shortened: as §1
# [7] = test system: crabgrass, large (large crabgrass, Digitaria sanguinalis); assay: Test C preemergence; type: in vivo; settings: for Plant response rating, Crabgrass, Large: scale 0 to 100, 0 no effect, 100 complete control
# Procedure, shortened: as §1
# corn (Zea mays) = assay: Test C preemergence; type: in vivo; settings: for Plant response rating, Corn: scale 0 to 100, 0 no effect, 100 complete control
# Procedure, shortened: as §1
# [8] = test system: ryegrass, Italian (Italian ryegrass, Lolium multiflorum); assay: Test C preemergence; type: in vivo; settings: for Plant response rating, Ryegrass, Italian: scale 0 to 100, 0 no effect, 100 complete control
# Procedure, shortened: as §1
# [9] = test system: Galium (catchweed bedstraw, Galium aparine); assay: Test C preemergence; type: in vivo; settings: for Plant response rating, Galium: scale 0 to 100, 0 no effect, 100 complete control
# Procedure, shortened: as §1
# [10] = test system: morningglory (Ipomoea coccinea); assay: Test C preemergence; type: in vivo; settings: for Plant response rating, Morningglory: scale 0 to 100, 0 no effect, 100 complete control
# Procedure, shortened: as §1
# [11] = test system: barnyardgrass (Echinochloa crus-galli); assay: Test C preemergence; type: in vivo; settings: for Plant response rating, Barnyardgrass: scale 0 to 100, 0 no effect, 100 complete control
# Procedure, shortened: as §1
# [12] = test system: blackgrass (Alopecurus myosuroides); assay: Test C preemergence; type: in vivo; settings: for Plant response rating, Blackgrass: scale 0 to 100, 0 no effect, 100 complete control
# Procedure, shortened: as §1
# [13] = test system: pigweed (Amaranthus retroflexus); assay: Test C preemergence; type: in vivo; settings: for Plant response rating, Pigweed: scale 0 to 100, 0 no effect, 100 complete control
# Procedure, shortened: as §1
# [14] = test system: waterhemp (common waterhemp, Amaranthus rudis); assay: Test C preemergence; type: in vivo; settings: for Plant response rating, Waterhemp: scale 0 to 100, 0 no effect, 100 complete control
# Procedure, shortened: as §1
# [15] = test system: nutsedge, yellow (yellow nutsedge, Cyperus esculentus); assay: Test C preemergence; type: in vivo; settings: for Plant response rating, Nutsedge, Yellow: scale 0 to 100, 0 no effect, 100 complete control
# Procedure, shortened: as §1
# [16] = test system: lambsquarters (Chenopodium album); assay: Test C preemergence; type: in vivo; settings: for Plant response rating, Lambsquarters: scale 0 to 100, 0 no effect, 100 complete control
# Procedure, shortened: as §1
# [17] = test system: sedge, umbrella (small-flower umbrella sedge, Cyperus difformis); assay: Test C flooded paddy test; type: in vivo; settings: Flood, 0 is no effect, 100 is complete control
# Procedure, shortened: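 Rice, small-flower umbrella sedge, ducksalad and barnyardgrass at the 2-leaf stage were flooded to 3 cm, and compound was applied into the paddy water. After 13 to 15 d in a greenhouse, plants were rated visually against controls on a 0 (no effect) to 100 (complete control) scale.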
# [18] = 31 g ai/ha, 0 is no effect, 100 is complete control
smiles,measurement,setting,value
COc1cccc([C@H]2CN(C)C(=O)[C@@H]2C(=O)Nc2cccc(F)c2F)c1F [Compound 1072],melting point,,163 to 167 °C
COc1ccc([C@H]2CNC(=O)[C@@H]2C(=O)Nc2cccc(F)c2F)cc1 [Compound 1341],melting point,,187 to 191 °C
O=C1NC[C@H](c2ccc(F)c(Oc3ccccc3)c2)[C@H]1C(=O)Nc1cccc(F)c1F [Compound 1258],melting point,,123 to 127 °C
COc1ccc([C@H]2CN(C)C(=O)[C@@H]2C(=O)Nc2cccc(F)c2F)cc1 [Compound 1343],melting point,,130 to 134 °C
C=C(C)c1cccc([C@H]2CN(C)C(=O)[C@@H]2C(=O)Nc2cccc(F)c2F)c1 [Compound 1085],melting point,,113 to 117 °C
CC(C)=CC1CNC(=O)C1C(=O)Nc1cccc(F)c1F (centres unmarked) [Compound 1012],melting point,,162 to 166 °C
C=C(C)c1ccc([C@H]2CN(C)C(=O)[C@@H]2C(=O)Nc2cccc(F)c2F)cc1 [Compound 1149],melting point,,126 to 130 °C
CN1C[C@H](c2ccc(F)c(Oc3ccccc3)c2)[C@@H](C(=O)Nc2ccccc2S(C)(=O)=O)C1=O [Compound 1143],melting point,,141 to 145 °C
O=C1NC[C@H](c2cc(Br)cc(Br)c2)[C@H]1C(=O)Nc1cccc(F)c1F [Compound 1366],melting point,,81 to 85 °C
C=C(C)c1cccc([C@H]2CN(C)C(=O)[C@@H]2C(=O)Nc2cccc(F)c2C)c1 [Compound 1086],melting point,,89 to 93 °C
CN1CC(c2ccc(F)c(C(F)(F)F)c2)C(C(=O)Nc2ccccc2S(C)(=O)=O)C1=O (centres unmarked) [Compound 612],"Plant response rating (scale of 0 to 100), Johnsongrass",[1]; [18],40
same,"Plant response rating, Johnsongrass",[1]; 62 g ai/ha,60
same,"Plant response rating, Johnsongrass",[1]; 125 g ai/ha,85
same,"Plant response rating, Johnsongrass",[1]; 250 g ai/ha,90
same,"Plant response rating (scale of 0 to 100), Oilseed Rape",[2]; [18],30
same,"Plant response rating, Oilseed Rape",[2]; 62 g ai/ha,50
same,"Plant response rating, Oilseed Rape",[2]; 125 g ai/ha,70
same,"Plant response rating, Oilseed Rape",[2]; 250 g ai/ha,90
same,"Plant response rating (scale of 0 to 100), Soybean",soybean (Glycine max); [18],0
same,"Plant response rating, Soybean",soybean (Glycine max); 62 g ai/ha,0
same,"Plant response rating, Soybean",soybean (Glycine max); 125 g ai/ha,10
same,"Plant response rating, Soybean",soybean (Glycine max); 250 g ai/ha,0
same,"Plant response rating (scale of 0 to 100), Velvetleaf",[3]; [18],0
same,"Plant response rating, Velvetleaf",[3]; 62 g ai/ha,10
same,"Plant response rating, Velvetleaf",[3]; 125 g ai/ha,30
same,"Plant response rating, Velvetleaf",[3]; 250 g ai/ha,60
same,"Plant response rating (scale of 0 to 100), Ragweed",[4]; [18],10
same,"Plant response rating, Ragweed",[4]; 62 g ai/ha,10
same,"Plant response rating, Ragweed",[4]; 125 g ai/ha,55
same,"Plant response rating, Ragweed",[4]; 250 g ai/ha,65
same,"Plant response rating (scale of 0 to 100), Wheat",[5]; [18],20
same,"Plant response rating, Wheat",[5]; 62 g ai/ha,55
same,"Plant response rating, Wheat",[5]; 125 g ai/ha,25
same,"Plant response rating, Wheat",[5]; 250 g ai/ha,90
same,"Plant response rating (scale of 0 to 100), Foxtail, Giant",[6]; [18],90
same,"Plant response rating, Foxtail, Giant",[6]; 62 g ai/ha,90
same,"Plant response rating, Foxtail, Giant",[6]; 125 g ai/ha,95
same,"Plant response rating, Foxtail, Giant",[6]; 250 g ai/ha,95
same,"Plant response rating (scale of 0 to 100), Crabgrass, Large",[7]; [18],98
same,"Plant response rating, Crabgrass, Large",[7]; 62 g ai/ha,95
same,"Plant response rating, Crabgrass, Large",[7]; 125 g ai/ha,98
same,"Plant response rating, Crabgrass, Large",[7]; 250 g ai/ha,100
same,"Plant response rating (scale of 0 to 100), Corn",corn (Zea mays); [18],40
same,"Plant response rating, Corn",corn (Zea mays); 62 g ai/ha,30
same,"Plant response rating, Corn",corn (Zea mays); 125 g ai/ha,65
same,"Plant response rating, Corn",corn (Zea mays); 250 g ai/ha,70
same,"Plant response rating (scale of 0 to 100), Ryegrass, Italian",[8]; [18],20
same,"Plant response rating, Ryegrass, Italian",[8]; 62 g ai/ha,40
same,"Plant response rating, Ryegrass, Italian",[8]; 125 g ai/ha,50
same,"Plant response rating, Ryegrass, Italian",[8]; 250 g ai/ha,80
same,"Plant response rating (scale of 0 to 100), Galium",[9]; [18],80
same,"Plant response rating, Galium",[9]; 62 g ai/ha,0
same,"Plant response rating, Galium",[9]; 125 g ai/ha,90
same,"Plant response rating, Galium",[9]; 250 g ai/ha,90
same,"Plant response rating (scale of 0 to 100), Morningglory",[10]; [18],0
same,"Plant response rating, Morningglory",[10]; 62 g ai/ha,0
same,"Plant response rating, Morningglory",[10]; 125 g ai/ha,25
same,"Plant response rating, Morningglory",[10]; 250 g ai/ha,55
same,"Plant response rating (scale of 0 to 100), Barnyardgrass",[11]; [18],85
same,"Plant response rating, Barnyardgrass",[11]; 62 g ai/ha,95
same,"Plant response rating, Barnyardgrass",[11]; 125 g ai/ha,95
same,"Plant response rating, Barnyardgrass",[11]; 250 g ai/ha,98
same,"Plant response rating (scale of 0 to 100), Blackgrass",[12]; [18],70
same,"Plant response rating, Blackgrass",[12]; 62 g ai/ha,90
same,"Plant response rating, Blackgrass",[12]; 125 g ai/ha,90
same,"Plant response rating, Blackgrass",[12]; 250 g ai/ha,95
same,"Plant response rating (scale of 0 to 100), Pigweed",[13]; [18],60
same,"Plant response rating, Pigweed",[13]; 62 g ai/ha,80
same,"Plant response rating, Pigweed",[13]; 125 g ai/ha,90
same,"Plant response rating, Pigweed",[13]; 250 g ai/ha,90
same,"Plant response rating (scale of 0 to 100), Waterhemp",[14]; [18],75
same,"Plant response rating, Waterhemp",[14]; 62 g ai/ha,85
same,"Plant response rating, Waterhemp",[14]; 125 g ai/ha,90
same,"Plant response rating, Waterhemp",[14]; 250 g ai/ha,95
same,"Plant response rating (scale of 0 to 100), Nutsedge, Yellow",[15]; [18],0
same,"Plant response rating, Nutsedge, Yellow",[15]; 62 g ai/ha,0
same,"Plant response rating, Nutsedge, Yellow",[15]; 125 g ai/ha,25
same,"Plant response rating, Nutsedge, Yellow",[15]; 250 g ai/ha,35
same,"Plant response rating (scale of 0 to 100), Lambsquarters",[16]; [18],45
same,"Plant response rating, Lambsquarters",[16]; 62 g ai/ha,45
same,"Plant response rating, Lambsquarters",[16]; 125 g ai/ha,40
same,"Plant response rating, Lambsquarters",[16]; 250 g ai/ha,70
same,"Plant response rating (scale of 0 to 100), Sedge, Umbrella",[17]; 31 g ai/ha,0
same,"Plant response rating (scale of 0 to 100), Sedge, Umbrella",[17]; 62 g ai/ha,0
same,"Plant response rating (scale of 0 to 100), Sedge, Umbrella",[17]; 125 g ai/ha,0
same,"Plant response rating (scale of 0 to 100), Sedge, Umbrella",[17]; 250 g ai/ha,0
